Reference: patent US7592457B2 (Korea Research Institute of Chemical Technology, priority 2004, dated 2009)
Where two headings read alike, the source gives them in different places.

What was measured:
5-HT2a = molecular target: T1, 5-HT2a (Homo sapiens, UniProt P28223); assay: Radioligand binding, 5-HT2a ([3H]Ketanserin); details: read-out: Binding affinity (Inhibition rate % at 10 μM) 5HT2a
T1 construct: purchased Euroscreen/BioSignal Packard Inc
Experimental: (§1) Radioligand bindings were performed according to the test method provided by the supplier of receptor membrane (Euroscreen/BioSignal Packard Inc.).

[1] = molecular target: T2, human serotonin 5-HT6 receptor (Homo sapiens, UniProt P50406); assay: [3H]LSD binding at cloned 5-HT6 receptors; details: for inhibition at 10 µM: read-out: Binding affinity (Inhibition rate % at 10 μM) 5HT6
T2 construct: made in house; host or cells: Sf21 insect cells (pBacPAK8 baculovirus vector)
T2 sequence (P50406 whole entry): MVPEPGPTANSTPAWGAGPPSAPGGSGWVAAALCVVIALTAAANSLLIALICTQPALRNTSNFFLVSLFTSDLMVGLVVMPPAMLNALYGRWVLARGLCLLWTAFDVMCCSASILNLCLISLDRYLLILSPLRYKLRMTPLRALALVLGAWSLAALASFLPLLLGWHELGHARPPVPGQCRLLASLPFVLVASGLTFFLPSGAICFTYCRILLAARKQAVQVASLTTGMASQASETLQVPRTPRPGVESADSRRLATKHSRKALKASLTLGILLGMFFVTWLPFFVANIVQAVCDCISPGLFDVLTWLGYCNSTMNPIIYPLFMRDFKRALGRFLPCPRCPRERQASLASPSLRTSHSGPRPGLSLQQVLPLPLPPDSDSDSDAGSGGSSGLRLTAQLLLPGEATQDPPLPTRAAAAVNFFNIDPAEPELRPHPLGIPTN

5-HT1a = molecular target: T3, 5-HT1a (Homo sapiens, UniProt P08908); assay: Radioligand binding, 5-HT1a ([3H]8-OH-DPAT); details: read-out: Binding affinity (Inhibition rate % at 10 μM) 5HT1a
T3 construct: purchased Euroscreen/BioSignal Packard Inc
T3 sequence (P08908 1-422): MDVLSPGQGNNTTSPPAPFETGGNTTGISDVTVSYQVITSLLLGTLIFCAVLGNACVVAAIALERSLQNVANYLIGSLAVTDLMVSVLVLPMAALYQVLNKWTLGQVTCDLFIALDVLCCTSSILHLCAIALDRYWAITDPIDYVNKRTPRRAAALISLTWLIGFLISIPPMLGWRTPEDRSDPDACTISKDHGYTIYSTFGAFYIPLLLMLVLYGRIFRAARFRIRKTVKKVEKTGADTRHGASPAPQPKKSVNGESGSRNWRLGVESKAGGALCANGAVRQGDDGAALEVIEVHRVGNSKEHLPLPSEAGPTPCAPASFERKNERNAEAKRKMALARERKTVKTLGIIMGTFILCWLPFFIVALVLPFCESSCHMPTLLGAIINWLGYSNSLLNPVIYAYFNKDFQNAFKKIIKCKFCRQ
Experimental: as §1

hD2L receptor = molecular target: T4, hD2L receptor (Homo sapiens, UniProt P14416); assay: Radioligand binding, dopamine D2 ([3H]spiperone); details: read-out: Binding affinity (Inhibition rate % at 10 μM) D2
T4 construct: purchased BioSignal Packard Inc., Montreal, Canada
T4 sequence (P14416 whole entry): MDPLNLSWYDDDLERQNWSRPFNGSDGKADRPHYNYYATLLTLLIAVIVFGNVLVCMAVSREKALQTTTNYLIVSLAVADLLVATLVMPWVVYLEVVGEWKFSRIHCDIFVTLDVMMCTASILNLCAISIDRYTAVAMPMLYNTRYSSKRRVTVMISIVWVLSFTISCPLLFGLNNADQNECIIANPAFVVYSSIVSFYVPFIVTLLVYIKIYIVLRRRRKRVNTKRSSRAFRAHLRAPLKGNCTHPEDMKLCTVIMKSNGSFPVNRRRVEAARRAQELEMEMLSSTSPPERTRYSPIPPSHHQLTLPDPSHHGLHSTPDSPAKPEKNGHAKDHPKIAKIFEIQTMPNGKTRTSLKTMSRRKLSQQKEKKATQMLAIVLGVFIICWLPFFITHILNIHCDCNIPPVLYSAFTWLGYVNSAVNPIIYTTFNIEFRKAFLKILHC

5-HT7 = molecular target: T5, 5-HT7 (Homo sapiens, UniProt P34969); assay: Radioligand binding, 5-HT7 ([3H]LSD); details: read-out: Binding affinity (Inhibition rate % at 10 μM) 5HT7
T5 construct: purchased Euroscreen/BioSignal Packard Inc
T5 sequence (P34969 whole entry): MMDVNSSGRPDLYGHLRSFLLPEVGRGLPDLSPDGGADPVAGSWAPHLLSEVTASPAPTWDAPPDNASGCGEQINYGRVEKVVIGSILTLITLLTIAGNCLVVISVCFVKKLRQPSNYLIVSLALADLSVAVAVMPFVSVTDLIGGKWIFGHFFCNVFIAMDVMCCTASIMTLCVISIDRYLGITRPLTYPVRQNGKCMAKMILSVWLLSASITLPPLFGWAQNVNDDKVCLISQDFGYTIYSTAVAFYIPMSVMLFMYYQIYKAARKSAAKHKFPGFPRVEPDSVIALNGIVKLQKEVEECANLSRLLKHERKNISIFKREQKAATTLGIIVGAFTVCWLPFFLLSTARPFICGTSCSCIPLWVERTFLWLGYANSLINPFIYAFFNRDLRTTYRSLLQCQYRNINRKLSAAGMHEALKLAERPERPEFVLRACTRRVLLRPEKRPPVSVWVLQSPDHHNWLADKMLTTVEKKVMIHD
Experimental: as §1

hD3 receptor = molecular target: T6, hD3 receptor (Homo sapiens, UniProt P35462); assay: Radioligand binding, dopamine D3 ([3H]spiperone); details: read-out: Binding affinity (Inhibition rate % at 10 μM) D3
T6 construct: purchased BioSignal Packard Inc., Montreal, Canada
T6 sequence (P35462 whole entry): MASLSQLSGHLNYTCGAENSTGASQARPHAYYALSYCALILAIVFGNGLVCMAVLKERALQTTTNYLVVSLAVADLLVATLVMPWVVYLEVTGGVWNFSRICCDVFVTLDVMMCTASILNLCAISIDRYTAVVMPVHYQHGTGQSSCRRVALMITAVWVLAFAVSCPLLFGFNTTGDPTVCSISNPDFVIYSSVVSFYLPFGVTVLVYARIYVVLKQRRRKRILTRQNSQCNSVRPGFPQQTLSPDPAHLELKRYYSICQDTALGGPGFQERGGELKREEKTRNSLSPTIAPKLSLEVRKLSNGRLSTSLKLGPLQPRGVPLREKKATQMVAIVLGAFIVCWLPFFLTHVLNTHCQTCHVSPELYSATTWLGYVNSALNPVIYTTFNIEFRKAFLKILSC

hD4.2 receptor = molecular target: T7, hD4.2 receptor (Homo sapiens, UniProt P21917, DEL265-296); assay: Radioligand binding, dopamine D4 ([3H]YM-09151-2); details: read-out: Binding affinity (Inhibition rate % at 10 μM) D4
T7 construct: purchased BioSignal Packard Inc., Montreal, Canada
T7 sequence (P21917 with tags, fused parts or gaps DEL265-296): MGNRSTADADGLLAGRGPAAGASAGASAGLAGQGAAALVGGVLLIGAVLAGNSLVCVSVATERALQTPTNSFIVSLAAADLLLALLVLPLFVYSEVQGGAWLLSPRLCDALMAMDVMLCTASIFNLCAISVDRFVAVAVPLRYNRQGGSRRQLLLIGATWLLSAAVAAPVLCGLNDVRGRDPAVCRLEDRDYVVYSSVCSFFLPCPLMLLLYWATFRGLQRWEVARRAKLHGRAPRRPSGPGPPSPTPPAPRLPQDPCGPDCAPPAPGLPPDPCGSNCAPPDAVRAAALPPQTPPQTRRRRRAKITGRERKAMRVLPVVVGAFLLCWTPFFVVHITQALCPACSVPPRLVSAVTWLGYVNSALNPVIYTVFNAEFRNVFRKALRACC

5-HT2c = molecular target: T8, 5-HT2c (Homo sapiens, UniProt P28335); assay: Radioligand binding, 5-HT2c ([3H]Mesulergine); details: read-out: Binding affinity (Inhibition rate % at 10 μM) 5HT2c
T8 construct: purchased Euroscreen/BioSignal Packard Inc
T8 sequence (P28335 33-458): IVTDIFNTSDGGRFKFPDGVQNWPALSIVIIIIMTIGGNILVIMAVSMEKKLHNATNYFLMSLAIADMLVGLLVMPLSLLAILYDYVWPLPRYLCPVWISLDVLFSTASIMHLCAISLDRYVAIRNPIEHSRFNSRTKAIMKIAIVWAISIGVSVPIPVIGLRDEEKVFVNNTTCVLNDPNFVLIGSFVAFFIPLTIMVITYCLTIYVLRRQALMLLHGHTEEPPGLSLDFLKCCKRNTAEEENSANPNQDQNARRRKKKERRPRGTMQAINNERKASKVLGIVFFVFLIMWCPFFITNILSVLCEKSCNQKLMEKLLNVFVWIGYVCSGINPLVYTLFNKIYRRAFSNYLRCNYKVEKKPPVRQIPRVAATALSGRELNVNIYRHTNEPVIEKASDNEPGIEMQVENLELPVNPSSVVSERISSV
Experimental: as §1

D1 = D1 (Homo sapiens, UniProt P21728); assay: Radioligand binding for selectivity, D1; details: read-out: Binding affinity (Inhibition rate % at 10 μM) D1
D1, sequence (P21728 whole entry): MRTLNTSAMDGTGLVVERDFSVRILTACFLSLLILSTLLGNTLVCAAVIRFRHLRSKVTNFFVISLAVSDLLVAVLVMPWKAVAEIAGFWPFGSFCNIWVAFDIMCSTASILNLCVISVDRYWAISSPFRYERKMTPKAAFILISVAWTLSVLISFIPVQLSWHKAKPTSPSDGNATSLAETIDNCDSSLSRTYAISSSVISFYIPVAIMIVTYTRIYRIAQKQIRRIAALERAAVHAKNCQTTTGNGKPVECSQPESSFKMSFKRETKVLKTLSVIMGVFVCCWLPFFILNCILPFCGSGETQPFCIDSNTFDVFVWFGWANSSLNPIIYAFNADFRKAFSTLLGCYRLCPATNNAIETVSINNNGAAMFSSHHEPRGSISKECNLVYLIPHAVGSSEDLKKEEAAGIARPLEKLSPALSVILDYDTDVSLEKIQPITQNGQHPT

[2] = [3H]LSD 1.87 nM, cloned receptor membranes, 37° C., 60 min, read-out: IC50

T1 sequence (P28223 whole entry): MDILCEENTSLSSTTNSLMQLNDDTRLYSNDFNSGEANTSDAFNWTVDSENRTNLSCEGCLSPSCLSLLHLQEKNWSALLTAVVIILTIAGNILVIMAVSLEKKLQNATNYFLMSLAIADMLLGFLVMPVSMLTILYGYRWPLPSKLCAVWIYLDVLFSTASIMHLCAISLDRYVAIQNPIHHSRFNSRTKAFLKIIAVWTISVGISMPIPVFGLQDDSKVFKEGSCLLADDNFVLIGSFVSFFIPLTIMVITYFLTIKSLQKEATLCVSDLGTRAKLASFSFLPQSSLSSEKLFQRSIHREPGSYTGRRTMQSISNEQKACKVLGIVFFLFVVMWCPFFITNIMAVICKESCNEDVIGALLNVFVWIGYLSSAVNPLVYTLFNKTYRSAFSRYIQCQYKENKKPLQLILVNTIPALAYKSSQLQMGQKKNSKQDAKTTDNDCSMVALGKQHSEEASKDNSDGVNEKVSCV

Row | Compound | inhibition at 10 µM (5-HT2a) [%] | IC50 [1, 2] [nM] | inhibition at 10 µM [1] [%] | inhibition at 10 µM (5-HT1a) [%] | inhibition at 10 µM (hD2L receptor) [%] | inhibition at 10 µM (5-HT7) [%] | inhibition at 10 µM (hD3 receptor) [%] | inhibition at 10 µM (hD4.2 receptor) [%] | melting point [°C] | inhibition at 10 µM (5-HT2c) [%] | inhibition at 10 µM (D1) [%] | IC50 [1] [nM] | 5-HT6 affinity compared with known selective antagonists ([1]; in words)
1 | CC1(c2ccc(OCc3ccccc3)c(Br)c2)C(=O)Nc2cc(Cl)cc(Cl)c2C1=O (stereo not drawn) [Example 23, 3-(4-benzyloxy-3-bromo-phenyl)-5,7-dichloro-3-methyl-1H-quinoline-2,4-dione] | 26.4 | 1260 | 70.6 | 64.9 | 9.6 | 27.4 | 32.5 | 0.7 | 189 to 190 | 21.9 | 16.8 | – | –
2 | CC1(c2ccc(O)c(Br)c2)C(=O)Nc2cc(Cl)cc(Cl)c2C1=O (stereo not drawn) [Example 24, 3-(3-bromo-4-hydroxy-phenyl)-5,7-dichloro-3-methyl-1H-quinoline-2,4-dione] | 11.5 | 126 | 71 | 50.4 | 5 | 5.5 | 16.6 | 0 | 228 to 229 | 22.8 | 13 | – | –
3 | C[C@H](NC(=O)Oc1ccc(C2(C)C(=O)Nc3cc(Cl)cc(Cl)c3C2=O)cc1)c1ccccc1 (stereo partly drawn) [Example 25] | 16.7 | – | 69.8 | 35.9 | 8.4 | 30.6 | 10.2 | 0 | 110 to 115 | 4 | 54.1 | 816 | –
4 | C[C@H](NC(=O)Oc1cccc(C2(C)C(=O)Nc3cc(Cl)cc(Cl)c3C2=O)c1)c1ccccc1 (stereo partly drawn) [Example 26] | 38.1 | – | 70 | 0 | 26.5 | 12.7 | 14.8 | 0.5 | 91 to 94 | 9.1 | 50.5 | 980 | –
5 | COc1cc(C2(C)C(=O)Nc3ccccc3C2=O)ccc1O (stereo not drawn) [Example 31, 3-(4-hydroxy-3-methoxy-phenyl)-3-methyl-1H-quinoline-2,4-dione] | 43.5 | 801 | 70.6 | 31.2 | 9.2 | 16.4 | 9.8 | 0 | 168 to 169 | 10.2 | 37.1 | – | –
6 | CC1(c2ccc(O)c(O)c2)C(=O)Nc2ccccc2C1=O (stereo not drawn) [Example 32, 3-(3,4-dihydroxy-phenyl)-3-methyl-1H-quinoline-2,4-dione] | 26.9 | 769 | 71 | 13.5 | 16 | 20.1 | 12.6 | 0 | 259 to 261 | 31.9 | 39 | – | –
7 | COc1ccc(C2(C)C(=O)Nc3cc(OC)cc(Cl)c3C2=O)cc1 (stereo not drawn) [Example 35, 5-chloro-7-methoxy-3-(4-methoxy-phenyl)-3-methyl-1H-quinoline-2,4-dione] | 20.7 | 1360 | 69.1 | 52.3 | 5.1 | 22.4 | 6.4 | 1.7 | 222 to 224 | 16.4 | 43.1 | – | –
8 | CC1(c2ccc([N+](=O)[O-])cc2)C(=O)Nc2cc(Cl)ccc2C1=O (stereo not drawn) [Example 37, 7-chloro-3-methyl-3-(4-nitro-phenyl)-1H-quinoline-2,4-dione] | 49.2 | 1000 | 73.3 | 10.4 | 8.3 | 21 | 10.5 | 0 | 209 to 210 | 1.4 | 49.2 | – | –
9 | CC1(c2ccc(N)cc2)C(=O)Nc2cc(Cl)ccc2C1=O (stereo not drawn) [Example 38, 3-(4-amino-phenyl)-7-chloro-3-methyl-1H-quinoline-2,4-dione] | 31.5 | 585 | 74.1 | 51.9 | 16.5 | 17.4 | 16.8 | 5.8 | 155 to 156 | 20.7 | 44.3 | – | –
10 | CN(C)c1ccc(C2(C)C(=O)Nc3cc(Cl)cc(Cl)c3C2=O)cc1 (stereo not drawn) [Example 40, 5,7-dichloro-3-(4-dimethylamino-phenyl)-3-methyl-1H-quinoline-2,4-dione] | 42.2 | 563 | 67.2 | 50.2 | 10.5 | 30.3 | 4.5 | 0 | 268 to 269 | 6.5 | 40.8 | – | –
11 | CCN(CC)c1ccc(C2(C)C(=O)Nc3cc(Cl)cc(Cl)c3C2=O)cc1 (stereo not drawn) [Example 42, 5,7-dichloro-3-(4-diethylamino-phenyl)-3-methyl-1H-quinoline-2,4-dione] | 16.9 | 15 | 69.5 | 6.5 | 15.7 | 10.1 | 25.3 | 8.5 | 247 to 249 | 13.7 | 38.7 | – | almost same affinities as or better affinities than known selective antagonists
12 | COc1ccc(C2(C)C(=O)Nc3cc(N4CCN(C)CC4)cc(Cl)c3C2=O)cc1 (stereo not drawn) [Example 46, 5-chloro-3-(4-methoxy-phenyl)-3-methyl-7-(4-methyl-piperazine-1-yl)-1H-quinoline-2,4-dione] | 16.5 | 1460 | 67.1 | 25.4 | 30.4 | 17.8 | 16.7 | 7.2 | 201 to 202 | 10.7 | 16 | – | –
13 | CN1CCN(c2ccc3c(c2)NC(=O)C(C)(c2ccc(N)cc2)C3=O)CC1 (stereo not drawn) [Example 50, 3-(4-amino-phenyl)-3-methyl-7-(4-methyl-piperazine-1-yl)-1H-quinoline-2,4-dione] | 21.5 | 942 | 74.5 | 6.7 | 8.2 | 20.5 | 50.1 | 0 | 265 to 267 | 15.4 | 34.1 | – | –
